Laboratory results as given in patent publication US8901118B2, “Compounds and methods for kinase modulation, and indications therefor” (Plexxikon Inc., priority 2010, dated 2014).

Tested on: MV-4-11 cells
Test: MV-4-11 (leukemia) cell proliferation assay (ATPlite)
Assay type: cell-based
Conditions: Homo sapiens, MV4-11, read-out: Inhibition of Cell Proliferation IC50, MV-4-11
Experimental: Compounds are assessed in a variety of cell based assays. For example BaF3 cells engineered with any of BCR-FMS, BCR-KIT, BCR-FLT3, BCR-NTRK1, BCR-NTRK2, and BCR-NTRK3, are used in cell proliferation assays to assess inhibitory activity of Fms, Kit, Flt-3, TrkA, TrkB, and TrkC, respectively. An MV-4-11 (leukemia) cell proliferation assay is used to assess inhibitory activity in Flt-3, and SKNSH (human neuroblastoma) cell proliferation assay is used to assess efficacy of Fms/Trk inhibitors. Additional cells may be assayed similarly to assess the efficacy of Fms/Trk inhibitors, such as MiaPaCa (human pancreatic cancer) and Capan-1 (human pancreatic carcinoma) cells. Reagent and assay conditions are as follows: • BaF3 cells: • Maintained in RPMI containing 10% FBS, 1% PenStrep, 1% NEAA, and 1% L-Glutamine, supplemented with 1 mg/mL G418 and 5% WEHI-CM (or recombinant murine IL-3). • Confluent cells are split 1:50 to 1:100 every 3-4 days. • MV-4-11 cells: • Maintained in Iscove's Modified Dulbecco's Medium containing 10% FBS. • Confluent cells are split 1:4 every 3-4 days. • SKNSH cells: RPMI containing 10% FBS. On day 1, cells are counted, then centrifuged in a conical tube for 5 minutes at 1000 rpm. The supernatant is removed and cells are re-suspended as follows: • BaF3: resuspend in growth media +1 mg/mL G418 (without WEHFIL-3) to 2×10^5 cells/mL. • MV-4-11: resuspend in growth media to 5×10^5 cells/mL. • SKNSH: resuspend in growth media to 2×10^4 cells/mL. The cells are plated (50 μL, 150 μL for SKNSH cells) in each well of a 96-well dish (Corning 3610) and incubated at 37° C. in 5% CO2 overnight, cells plated to a final concentration of cells as follows: • BaF3: 10,000 cells per well. • MV-4-11: 25,000 cells per well. • SKNSH: 3,000 cells per well. On day 2, compound at a maximum concentration of 5 mM is serially diluted 1:3 for a total of 8 point titration with DMSO as a control. A 1 μL aliquot of each dilution point is added to 249 μL growth media and 50 μL is added to a well containing cells, providing 10 μM compound for the maximum concentration point. The cells are incubated for 3 days at 37° C. in 5% CO2. For SKNSH cells, a 0.75 μL aliquot of appropriate dilution in DMSO is added to 150 μL of cells. On day 5, ATPlite 1 step Luminescence Assay System (Perkin Elmer #6016739) is brought to room temperature along with the cell cultures. ATPlite is added to each well as follows: • BaF3: 25 μL per well. • MV-4-11: 40 μL per well. • SKNSH: 20 μL per well. The cells are incubated at room temperature for 10 minutes, then luminescence is read on Safire reader. The measured luminescence correlates directly with cell number, such that the reading as a function of compound concentration is used to determine the IC50 value.
It is understood that the results of these assays may vary as assay conditions are varied. Inhibition levels determined under the conditions described herein represent a relative activity for the compounds tested under the specific conditions employed. The cell based assays are likely to show variability due to the complexity of the system and the sensitivity thereof to any changes in the assay conditions. […] Results for compounds that are tested and show substantially no inhibition below the highest tested concentration are represented as “-” in the tables below. In some instances, the compounds were not tested in all of the assays, or assay results were not valid, as indicated by NA in the tables below.

Fc1nc(NC2CCC(F)(F)CC2)ccc1Cc1c[nH]c2ncc(Cl)cc12 [Compound P-3013, [5-(5-Chloro-1H-pyrrolo[2,3-b]pyridin-3-ylmethyl)-6-fluoro-pyridin-2-yl]-(4,4-difluoro-cyclohexyl)-amine]
IC50: < 10 µM
